Experimental data taken from ChEMBL document CHEMBL4613209, “Quinolone hybrids and their anti-cancer activities: An overview” (Eur J Med Chem, 2019).

Experiments:
[1] = test system: SMMC-7721; assay: Antiproliferative activity against human SMMC7721 cells by MTT assay; assay type: functional, cell-based
[2] = test system: HL-60; assay: Antiproliferative activity against human HL60 cells by MTT assay; assay type: functional, cell-based
[3] = test system: L1210; assay: Antiproliferative activity against mouse L1210 cells by MTT assay; assay type: functional, cell-based
[4] = test system: A549; assay: Antiproliferative activity against human A549 cells after 72 hrs by MTT assay; assay type: functional, cell-based; details: A549, 72 h
[5] = test system: HL-60; assay: Antiproliferative activity against human HL60 cells after 72 hrs by MTT assay; assay type: functional, cell-based; details: HL-60, 72 h
[6] = test system: PC-3; assay: Cytotoxicity against human PC3 cells assessed as reduction in cell viability; assay type: functional, cell-based
[7] = test system: HepG2; assay: Cytotoxicity against human HepG2 cells assessed as reduction in cell viability; assay type: functional, cell-based
[8] = test system: MGC-803; assay: Cytotoxicity against human MGC803 cells assessed as reduction in cell viability; assay type: functional, cell-based
[9] = test system: MCF7; assay: Cytotoxicity against human MCF7 cells assessed as reduction in cell viability; assay type: functional, cell-based
[10] = test system: GES1; assay: Cytotoxicity against human GES-1 cells assessed as reduction in cell viability; assay type: cell-based
[11] = test system: SW-620; assay: Cytotoxicity against human SW620 cells assessed as reduction in cell viability; assay type: functional, cell-based
[12] = test system: NCI-H460; assay: Cytotoxicity against human NCI-H460 cells assessed as reduction in cell viability; assay type: functional, cell-based

Row | SMILES | IC50 [1] [µM] | IC50 [2] [µM] | IC50 [3] [µM] | IC50 [4] [µM] | IC50 [5] [µM] | IC50 [6] [µM] | IC50 [7] [µM] | IC50 [8] [µM] | IC50 [9] [µM] | IC50 [10] [µM] | IC50 [11] [µM] | IC50 [12] [µM]
1 | CCn1cc(C(=O)O)c(=O)c2cc(F)c(N3CCN(C(=N)NS(=O)(=O)c4cccc(Cl)c4)CC3)cc21 | – | – | – | 0.032 to 0.161 | 0.032 to 0.161 | – | – | – | – | – | – | –
2 | C[C@H]1COc2c(N3CCN(C)CC3)c(F)cc3c(=O)c(-c4nnc(NC(=O)CCCCCCCC(=O)NO)s4)cn1c23 | – | – | – | – | – | 0.019 to 0.127 | 0.019 to 0.127 | 0.019 to 0.127 | 0.019 to 0.127 | > 81.5 | 0.019 to 0.127 | 0.019 to 0.127
3 | C[C@H]1COc2c(N3CCN(C)CC3)c(F)cc3c(=O)c(-c4nnc(NC(=O)CCCCC(=O)NO)s4)cn1c23 | – | – | – | – | – | 0.019 to 0.127 | 0.019 to 0.127 | 0.019 to 0.127 | 0.019 to 0.127 | > 81.5 | 0.019 to 0.127 | 0.019 to 0.127
4 | C[C@H]1COc2c(N3CCN(C)CC3)c(F)cc3c(=O)c(-c4nnc(NC(=O)CCCCC(=O)O)s4)cn1c23 | – | – | – | – | – | 1.1 to 14.3 | 1.1 to 14.3 | 1.1 to 14.3 | 1.1 to 14.3 | > 81.5 | 1.1 to 14.3 | 1.1 to 14.3
5 | C[C@H]1COc2c(N3CCN(C)CC3)c(F)cc3c(=O)c(-c4nnc(NC(=O)CCCCCCCCC(=O)NO)s4)cn1c23 | – | – | – | – | – | 0.019 to 0.127 | 0.019 to 0.127 | 0.019 to 0.127 | 0.019 to 0.127 | > 81.5 | 0.019 to 0.127 | 0.019 to 0.127
6 | C[C@H]1COc2c(N3CCN(C)CC3)c(F)cc3c(=O)c(-c4nnc(NC(=O)CCCC(=O)Nc5ccccc5N)s4)cn1c23 | – | – | – | – | – | 0.046 to 0.203 | 0.046 to 0.203 | 0.046 to 0.203 | 0.046 to 0.203 | > 81.5 | 0.046 to 0.203 | 0.046 to 0.203
7 | CCn1cc(C(=O)O)c(=O)c2cc(F)c(N3CCN(C(=N)NS(=O)(=O)c4ccc(C(F)(F)F)cc4)CC3)cc21 | – | – | – | 0.032 to 0.161 | 0.032 to 0.161 | – | – | – | – | – | – | –
8 | CCn1cc(C(=O)O)c(=O)c2cc(F)c(N3CCN(C(=N)NS(=O)(=O)c4ccccc4)CC3)cc21 | – | – | – | 0.032 to 0.161 | 0.032 to 0.161 | – | – | – | – | – | – | –
9 | C[C@H]1COc2c(N3CCN(C)CC3)c(F)cc3c(=O)c(-c4nnc(NC(=O)CCCCCC(=O)NO)s4)cn1c23 | – | – | – | – | – | 0.019 to 0.127 | 0.019 to 0.127 | 0.019 to 0.127 | 0.019 to 0.127 | > 81.5 | 0.019 to 0.127 | 0.019 to 0.127
10 | C[C@H]1COc2c(N3CCN(C)CC3)c(F)cc3c(=O)c(-c4nnc(NC(=O)CCCCC(=O)Nc5ccccc5N)s4)cn1c23 | – | – | – | – | – | 0.046 to 0.203 | 0.046 to 0.203 | 0.046 to 0.203 | 0.046 to 0.203 | > 81.5 | 0.046 to 0.203 | 0.046 to 0.203
11 | N=C(NS(=O)(=O)c1ccc(C(F)(F)F)cc1)N1CCN(c2cc3c(cc2F)c(=O)c(C(=O)O)cn3C2CC2)CC1 | – | – | – | 0.032 to 0.161 | 0.032 to 0.161 | – | – | – | – | – | – | –
12 | N=C(NS(=O)(=O)c1ccccc1C(F)(F)F)N1CCN(c2cc3c(cc2F)c(=O)c(C(=O)O)cn3C2CC2)CC1 | – | – | – | 0.032 to 0.161 | 0.032 to 0.161 | – | – | – | – | – | – | –
13 | Cc1ccc(S(=O)(=O)NC(=N)N2CCN(c3cc4c(cc3F)c(=O)c(C(=O)O)cn4C3CC3)CC2)cc1 | – | – | – | 0.032 to 0.161 | 0.032 to 0.161 | – | – | – | – | – | – | –

Continued, in another order:

Row | IC50 [1] [µM] | IC50 [2] [µM] | IC50 [3] [µM] | IC50 [4] [µM] | IC50 [5] [µM] | SMILES | IC50 [6] [µM] | IC50 [7] [µM] | IC50 [8] [µM] | IC50 [9] [µM] | IC50 [10] [µM] | IC50 [11] [µM] | IC50 [12] [µM]
14 | 1 to 48.6 | 1 to 48.6 | 1 to 48.6 | – | – | Cc1ccc(C2=NN=C3C(F)=Cc4c(n(C5CC5)cc(C(=O)O)c4=O)N3C2)cc1 | – | – | – | – | – | – | –
15 | 1 | 1 to 48.6 | 3.5 | – | – | O=C(O)c1cn(C2CC2)c2c(c1=O)C=C(F)C1=NN=C(c3ccc([N+](=O)[O-])cc3)CN12 | – | – | – | – | – | – | –
16 | 1 to 48.6 | 1 to 48.6 | 1 to 48.6 | – | – | COc1ccc(C2=NN=C3C(F)=Cc4c(n(C5CC5)cc(C(=O)O)c4=O)N3C2)cc1OC | – | – | – | – | – | – | –
17 | 1 to 48.6 | 1 to 48.6 | 1 to 48.6 | – | – | O=C(O)c1cn(C2CC2)c2c(c1=O)C=C(F)C1=NN=C(c3ccc(Br)cc3)CN12 | – | – | – | – | – | – | –
18 | 1 to 48.6 | 1 to 48.6 | 1 to 48.6 | – | – | O=C(O)c1cn(C2CC2)c2c(c1=O)C=C(F)C1=NN=C(c3ccccc3F)CN12 | – | – | – | – | – | – | –
19 | 1 to 48.6 | 1 to 48.6 | 1 to 48.6 | – | – | Nc1cccc(C2=NN=C3C(F)=Cc4c(n(C5CC5)cc(C(=O)O)c4=O)N3C2)c1 | – | – | – | – | – | – | –
20 | – | – | – | 0.032 to 0.161 | 0.032 to 0.161 | N=C(NS(=O)(=O)c1cccc(Cl)c1)N1CCN(c2cc3c(cc2F)c(=O)c(C(=O)O)cn3C2CC2)CC1 | – | – | – | – | – | – | –
21 | 1 to 48.6 | 1 to 48.6 | 1 to 48.6 | – | – | Nc1ccc(C2=NN=C3C(F)=Cc4c(n(C5CC5)cc(C(=O)O)c4=O)N3C2)cc1 | – | – | – | – | – | – | –
22 | 1 to 48.6 | 1 to 48.6 | 1 to 48.6 | – | – | O=C(O)c1cn(C2CC2)c2c(c1=O)C=C(F)C1=NN=C(c3cccc(Cl)c3)CN12 | – | – | – | – | – | – | –
23 | – | – | – | 0.032 to 0.161 | 0.032 to 0.161 | N=C(NS(=O)(=O)c1ccc(Cl)cc1)N1CCN(c2cc3c(cc2F)c(=O)c(C(=O)O)cn3C2CC2)CC1 | – | – | – | – | – | – | –
